# Test results published in US20180155344A1, “TRICYCLIC PIPERIDINE COMPOUNDS” (ACTELION PHARMACEUTICALS LTD, priority 2015, published 2018).
# pIC50: −log10 of the molar value.
# Biological target: T1, human TPH1 (Homo sapiens, UniProt P17752)
# T1 sequence (P17752 1-444): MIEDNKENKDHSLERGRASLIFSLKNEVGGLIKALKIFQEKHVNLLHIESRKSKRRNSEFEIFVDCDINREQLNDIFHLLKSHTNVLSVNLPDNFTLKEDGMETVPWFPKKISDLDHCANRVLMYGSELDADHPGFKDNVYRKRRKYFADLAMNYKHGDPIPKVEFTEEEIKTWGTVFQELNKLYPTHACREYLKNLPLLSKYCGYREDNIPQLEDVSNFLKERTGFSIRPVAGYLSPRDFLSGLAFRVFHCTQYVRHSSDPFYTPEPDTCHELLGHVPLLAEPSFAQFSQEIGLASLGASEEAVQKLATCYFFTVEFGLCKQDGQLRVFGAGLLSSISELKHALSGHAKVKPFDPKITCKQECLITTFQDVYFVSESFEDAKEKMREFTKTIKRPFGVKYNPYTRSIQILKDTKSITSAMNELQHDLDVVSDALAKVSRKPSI
# Test: biochemical
# Conditions: not given
# From the text: Biochemical In Vitro Assay Using Fluorescence Readout
# To generate the enzyme, full length human TPH1 is cloned into the plasmid pET20b(+) (Novagen) and expressed in E. coli. The bacterial cells are ruptured by sonication on ice and the lysate is cleared by centrifugation. The resulting protein in the pellet is re-extracted and TPH1 is purified from the obtained lysate by affinity chromatography using a pterin cosubstrate analog immobilized to the resin of the column. The protein is further purified by size exclusion chromatography to remove protein aggregates. The activity of TPH1 is determined by using a fluorescence assay. The enzyme activity assay is carried out at 15° C. with atmosphere oxygen for the duration of 60 minutes in a volume of 64 μl. The reaction is carried out in a 0.1 M Tris-HCl buffer, adjusted to pH 7.6, containing 1 mM DTT, 0.2 mg/mL catalase, 100 μM (±)-6-methyl-5,6,7,8-tetrahydropterine dihydrochloride, 40 μM L-tryptophan, and 40-80 nM of TPH1. The reaction is started by bringing together L-tryptophan with all the other reaction substituents and stopped by quenching with perchloric acid (HClO4). The amount of 5-hydroxy-L-tryptophan produced during the enzymatic reaction is determined by fluorescence readout. Fluorescence, as determined at 540 nm when excited at 300 nm wavelength, increases proportionally to the 5-hydroxy-L-tryptophan formed. Compounds are prepared as 10 mM stock solution in DMSO, then diluted in 384-well plates using DMSO followed by a transfer of the dilutions into the assay plate. Fluorescence is measured for each well and the fluorescence at 540 nm wavelength is compared to the fluorescence of the vehicle in place of compound. […] The calculated IC50 values may fluctuate depending on the daily biochemical assay performance. Fluctuations of this kind are known to those skilled in the art.
row,Molecule,pIC50
1,"COc1ccc(C2c3c(nc4ccccn34)CCN2C(=O)COc2cc(C)ccc2C)cc1OC (centres unmarked) [Example 1.1.1, 1-(1-(3,4-dimethoxyphenyl)-3,4-dihydroimidazo[1,2-a:5,4-c′]dipyridin-2(1H)-yl)-2-(2,5-dimethylphenoxy)ethan-1-one]",6.38
2,"COc1ccc(C2c3c(nc4ccccn34)CCN2C(=O)COc2ccc(C)cc2C)cc1OC (centres unmarked) [Example 1.1.2, 1-(1-(3,4-dimethoxyphenyl)-3,4-dihydroimidazo[1,2-a:5,4-c′]dipyridin-2(1H)-yl)-2-(2,4-dimethylphenoxy)ethan-1-one]",6.74
3,"COc1ccc(C2c3c(nc4ccccn34)CCN2C(=O)COc2cccc3ccccc23)cc1OC (centres unmarked) [Example 1.1.3, 1-(1-(3,4-dimethoxyphenyl)-3,4-dihydroimidazo[1,2-a:5,4-c′]dipyridin-2(1H)-yl)-2-(naphthalen-1-yloxy)ethan-1-one]",6.87
4,"COc1ccc(C2c3c(nc4ccccn34)CCN2C(=O)COc2ccc(Cl)cc2Cl)cc1OC (centres unmarked) [Example 1.1.4, 2-(2,4-dichlorophenoxy)-1-(1-(3,4-dimethoxyphenyl)-3,4-dihydroimidazo[1,2-a:5,4-c′]dipyridin-2(1H)-yl)ethan-1-one]",7.16
5,"COc1ccc(C2c3c(nc4ccccn34)CCN2C(=O)COc2ccc3ccccc3c2)cc1OC (centres unmarked) [Example 1.1.5, 1-(1-(3,4-dimethoxyphenyl)-3,4-dihydroimidazo[1,2-a:5,4-c′]dipyridin-2(1H)-yl)-2-(naphthalen-2-yloxy)ethan-1-one]",7.62
6,"COc1ccc(C2c3c(nc4ccccn34)CCN2C(=O)COc2ccc3ccccc3c2C)cc1OC (centres unmarked) [Example 1.1.6, 1-(1-(3,4-dimethoxyphenyl)-3,4-dihydroimidazo[1,2-a:5,4-c′]dipyridin-2(1H)-yl)-2-((1-methylnaphthalen-2-yl)oxy)ethan-1-one]",7.92
7,"CCc1c(OCC(=O)N2CCc3nc4ccccn4c3C2c2ccc(OC)c(OC)c2)ccc2ccccc12 (centres unmarked) [Example 1.1.7, 1-(1-(3,4-dimethoxyphenyl)-3,4-dihydroimidazo[1,2-a:5,4-c′]dipyridin-2(1H)-yl)-2-((1-ethylnaphthalen-2-yl)oxy)ethan-1-one]",8.40
8,"COc1ccc(C2c3c(nc4ccccn34)CCN2C(=O)COc2ccc3ccccc3c2Br)cc1OC (centres unmarked) [Example 1.1.8, 2-((1-bromonaphthalen-2-yl)oxy)-1-(1-(3,4-dimethoxyphenyl)-3,4-dihydroimidazo[1,2-a:5,4-c′]dipyridin-2(1H)-yl)ethan-1-one]",8.05
9,"COc1ccc(C2c3c(nc4ccccn34)CCN2C(=O)COc2ccc3ccccc3c2Cl)cc1OC (centres unmarked) [Example 1.1.9, 2-((1-chloronaphthalen-2-yl)oxy)-1-(1-(3,4-dimethoxyphenyl)-3,4-dihydroimidazo[1,2-a:5,4-c′]dipyridin-2(1H)-yl)ethan-1-one]",8.10
10,"CCOC(=O)c1cc(OCC(=O)N2CCc3nc4ccccn4c3C2c2ccc(OC)c(OC)c2)c(CC)cc1C (centres unmarked) [Example 1.1.10, ethyl 5-(2-(1-(3,4-dimethoxyphenyl)-3,4-dihydroimidazo[1,2-a:5,4-c′]dipyridin-2(1H)-yl)-2-oxoethoxy)4-ethyl-2-methylbenzoate]",7.04
11,"CCc1cc(C)c(C(N)=O)cc1OCC(=O)N1CCc2nc3ccccn3c2C1c1ccc(OC)c(OC)c1 (centres unmarked) [Example 1.1.11, 5-(2-(1-(3,4-dimethoxyphenyl)-3,4-dihydroimidazo[1,2-a:5,4-c′]dipyridin-2(1H)-yl)-2-oxoethoxy)-4-ethyl-2-methylbenzamide]",6.61
12,"CCc1cc(C)c(C(=O)NC)cc1OCC(=O)N1CCc2nc3ccccn3c2C1c1ccc(OC)c(OC)c1 (centres unmarked) [Example 1.1.12, 5-(2-(1-(3,4-dimethoxyphenyl)-3,4-dihydroimidazo[1,2-a:5,4-c′]dipyridin-2(1H)-yl)-2-oxoethoxy)-4-ethyl-N,2-dimethylbenzamide]",6.85
13,"O=C(COc1ccc(CN2CCOCC2)cc1Cl)N1CCc2nc3ccccn3c2C1c1cccnc1F (centres unmarked) [Example 1.2.1, 2-(2-chloro-4-(morpholinomethyl)phenoxy)-1-(1-(2-fluoropyridin-3-yl)-3,4-dihydroimidazo[1,2-a:5,4-c′]dipyridin-2(1H)-yl)ethan-1-one]",6.68
14,"COc1ccc(C2c3c(nc4ccccn34)CCN2C(=O)COc2ccc(CN3CCOCC3)nc2Cl)c(F)c1 (centres unmarked) [Example 1.3.1, 2-((2-chloro-6-(morpholinomethyl)pyridin-3-yl)oxy)-1-(1-(2-fluoro-4-methoxyphenyl)-3,4-dihydroimidazo[1,2-a:5,4-c′]dipyridin-2(1H)-yl)ethan-1-one]",7.08
15,"COc1ccc(C2c3c(nc4ccccn34)CCN2C(=O)COc2ccc(NS(C)(=O)=O)nc2Cl)c(F)c1 (centres unmarked) [Example 1.3.2, N-(6-chloro-5-(2-(1-(2-fluoro-4-methoxyphenyl)-3,4-dihydroimidazo[1,2-a:5,4-c′]dipyridin-2(1H)-yl)-2-oxoethoxy)pyridin-2-yl)methanesulfonamide]",7.40
16,"COc1ccc(C2c3c(nc4ccccn34)CCN2C(=O)COc2ccc(C(=O)NC3CC3)nc2Cl)c(F)c1 (centres unmarked) [Example 1.3.3, 6-chloro-N-cyclopropyl-5-(2-(1-(2-fluoro-4-methoxyphenyl)-3,4-dihydroimidazo[1,2-a:5,4-c′]dipyridin-2(1H)-yl)-2-oxoethoxy)picolinamide]",7.72
17,"Cc1cc(Cl)ccc1OCC(=O)N1CCc2nc3ccccn3c2C1c1ccc(Cl)cc1F (centres unmarked) [Example 1.4.1, 1-(1-(4-chloro-2-fluorophenyl)-3,4-dihydroimidazo[1,2-a:5,4-c′]dipyridin-2(1H)-yl)-2-(4-chloro-2-methylphenoxy)ethan-1-one]",7.74
18,"CCc1ncccc1OCC(=O)N1CCc2nc3ccccn3c2C1c1ccc(Cl)cc1F (centres unmarked) [Example 1.4.2, 1-(1-(4-chloro-2-fluorophenyl)-3,4-dihydroimidazo[1,2-a:5,4-c′]dipyridin-2(1H)-yl)-2-((2-ethylpyridin-3-yl)oxy)ethan-1-one]",7.26
19,"O=C(COc1cccnc1Cl)N1CCc2nc3ccccn3c2C1c1ccc(Cl)cc1F (centres unmarked) [Example 1.4.3, 1-(1-(4-chloro-2-fluorophenyl)-3,4-dihydroimidazo[1,2-a:5,4-c′]dipyridin-2(1H)-yl)-2-((2-chloropyridin-3-yl)oxy)ethan-1-one]",6.57
20,"O=C(COc1ccc(CN2CCOCC2)nc1Cl)N1CCc2nc3ccccn3c2C1c1ccc(Cl)cc1F (centres unmarked) [Example 1.4.4, 1-(1-(4-chloro-2-fluorophenyl)-3,4-dihydroimidazo[1,2-a:5,4-c′]dipyridin-2(1H)-yl)-2-((2-chloro-6-(morpholinomethyl)pyridin-3-yl)oxy)ethan-1-one]",7.05
21,"O=C(COc1ccc(N2CCOCC2)nc1Cl)N1CCc2nc3ccccn3c2C1c1ccc(Cl)cc1F (centres unmarked) [Example 1.4.5, 1-(1-(4-chloro-2-fluorophenyl)-3,4-dihydroimidazo[1,2-a:5,4-c′]dipyridin-2(1H)-yl)-2-((2-chloro-6-morpholinopyridin-3-yl)oxy)ethan-1-one]",8.30
22,"CCc1nc(C)ccc1OCC(=O)N1CCc2nc3ccccn3c2C1c1ccc(Cl)cc1F (centres unmarked) [Example 1.4.6, 1-(1-(4-chloro-2-fluorophenyl)-3,4-dihydroimidazo[1,2-a:5,4-c′]dipyridin-2(1H)-yl)-2-((2-ethyl-6-methylpyridin-3-yl)oxy)ethan-1-one]",7.11

# Same assay, conditions: Table 1; full length human TPH1, 40 μM L-tryptophan, 15° C., 60 minutes; mean if determined several times
row,Molecule,pIC50
1,"1-(1-(4-(aminomethyl)phenyl)-7-(trifluoromethyl)-3,4-dihydroimidazo[1,2-a:5,4-c′]dipyridin-2(1H)-yl)-2-(2-chloro-4-(morpholinomethyl)phenoxy)ethan-1-one [Example 3.31.2]",6.84
2,"1-(1-(4-(aminomethyl)phenyl)-7-(trifluoromethyl)-3,4-dihydroimidazo[1,2-a:5,4-c′]dipyridin-2(1H)-yl)-2-(naphthalen-2-yloxy)ethan-1-one [Example 3.31.1]",7.14
3,"2-((6-(aminomethyl)-2-chloropyridin-3-yl)oxy)-1-(9-(5-cyclopropyl-3-fluoropyridin-2-yl)-6,9-dihydropyrido[4′,3′:4,5]imidazo[1,2-b]pyridazin-8(7H)-yl)ethan-1-one [Example 16.2.4]",6.40

# Same assay, conditions: Table 3; inhibitory activity on tryptophan hydroxylase 1
row,Molecule,pIC50
1,"1-(1-(3,4-dimethoxyphenyl)-7-(trifluoromethyl)-3,4-dihydroimidazo[1,2-a:5,4-c′]dipyridin-2(1H)-yl)-2-(3-(trifluoromethyl)phenoxy)ethan-1-one [Example 3.1.10]",6.60
